Source: patent publication US20100190795A1, “BETULIN DERIVED COMPOUNDS USEFUL AS ANTIPROTOZOAL AGENTS” (Valtion Teknillinen tutkimuskeskus, priority 2006, published 2010)

System: Leishmania
Assay: Alamar Blue determination of activity against Leishmania (single concentration and GI50)
Format: cell-based, Leishmania donovani, L. tropica
Settings: for activity against leishmaniasis: statement in words in the description; for inhibition at 50 µM: Leishmania, compound concentration 50 µM; for GI50: concentrations between 50 and 0.01 μM
Method: Leishmania donovani MHOM/SD/1962/1S-012D and L. tropica MHOM/IS/1990/LRC-L590 protozoa were used in the tests.
Promastigotes were grown in a broth containing Medium-199 (Sigma, St. Louis, Mo.) supplemented with 2 mM L-glutamine, 100 μM adenosine, 23 μM folio acid, antibiotics (100 IU penicillin G and 100 μg/ml streptomycin), 1×BME vitamin mixture, 25 mM 2-(N-morpholin)ethanesulfonic acid (MES), 4.2 mM NaHCO3 and heat treated fetal calf serum (FCS, 10% v/v), pH being adjusted to 6.8, Promastigotes were grown at 26° C.
Axenic amastigotes of L. donovani were grown according to the procedure presented by Debrabant et al., 2004, in the RPMI 1640 broth containing 20% v/v of fetal calf serum (FCS), at 37° C., pH 5.5, Axenic amastigotes of L. tropica were grown as described for L. donovani with the exception that only 10% v/v FCS was used, at 36° C. without CO2.
Each dilution with the desired concentration of the parasite was dispensed as three parallel samples (250 μl/well) to a 96 well microtiter plate having a flat bottom (NUNC, Denmark), followed by the addition of Alamar Blue reagent (25 μl/well, ENCO). The plates were read (λcm=544 nm; λex2=590 nm) after following incubation times (3, 9, 24, 48 and 72 h) using a fluorescence microtiter plate reader (Fluoroskan, Ascent Fla., Finland).
Activity of the compounds was tested both for L. donovani and L. tropica species. Promastigotes (2×10^6 cells/ml) or axenic amastigotes (5.0×10^5 cells/ml) were introduced as three parallel samples (125 μl/well) to 96 well microtiter plates having flat bottoms, the wells containing each compound diluted in the cultivation broth (125 with final concentration of DMSO of 1%), Initially, the concentration of the compounds was […]. Amphotericin B (1 μM) was included as positive control (Sigma, St. Louis, Mo.), Broth containing DMSO was used as negative control. The parasites were tested either with or without the compounds by incubating at 26° C. (promastigotes), at 36° C. (axenic amastogotes of L. tropica) or at 37° C. (axenic amastogotes of L. donovani). After 24 hours, the Alamar Blye reagent (25 μl/well) was added, the plates were still incubater for 24 hours, followed by fluorescence determination. GI50 assay was carried out using the same procedure, the concentrations of the compounds to be tested ranging, however, between 50 and 0.01 μM.
Testing of the compounds was carried out as described in example 32.

[1] = Table 4, 24 h, then Alamar Blue 24 h, fluorescence, species and stage not given
[2] = Table 5, tested as in example 32, species and stage not stated

Compound	Inhibition of Leishmania (%) [1]	Inhibition of Leishmania (%) [2]	also measured
28-carboxymethoxy mentholester of betulin [betulin 28-carboxymethoxy mentholester]	16.6%		
C=C(C)[C@@H]1CC[C@]2(CO)CC[C@]3(C)[C@H](CC[C@@H]4[C@@]5(C)CC=CC(C)(C)[C@@H]5CC[C@]43C)[C@@H]12 [2,3-didehydro-3-deoxybetulin, reference compound]	13.2%		
CC(C)[C@@H]1CC[C@]2(C(=O)O)CC[C@]3(C)[C@H](CC[C@@H]4[C@@]5(C)CCC(=O)C(C)(C)[C@@H]5CC[C@]43C)[C@@H]12 [20,29-hydrobetulonic acid, 20,29-dihydrobetulonic acid]	73.4%		
C=C(C)[C@@H]1CC[C@]2(COC(=O)c3ccccc3NC(C)=O)CC[C@]3(C)C(CCC4[C@@]5(C)CC[C@H](O)C(C)(C)C5CC[C@]43C)C12 (stereo partly shown) [28-N-acetylanthranilic acid ester of betulin]	59.2%		activity against leishmaniasis: considerable activity
C=C(C)C1CCC2(COC(C)=O)CCC3(C)C(CCC4C5(C)CCC(=O)C(C)(C)C5CCC43C)C12 (stereo not shown) [28-acetate of betulonic alcohol]	40.6%		
C=C(C)C1CCC2(C(=O)NC(CC(=O)OC)C(=O)OC)CCC3(C)C(CCC4C5(C)CCC(=O)C(C)(C)C5CCC43C)C12 (stereo not shown) [28-aspartateamide dimethyl ester of betulonic acid]	69.3%		activity against leishmaniasis: considerable activity
C=C(C)C1CCC2(C(=O)OC)CCC3(C)C(CCC4C5(C)CCC(=O)C(C)(C)C5CCC43C)C12 (stereo not shown) [28-methylester of betulonic acid]	40.1%		
C[C@@H]1[C@H](O)[C@@H](C)/C=C/C=C/C=C/C=C/C=C/C=C/C=C/[C@H](O[C@@H]2O[C@H](C)[C@@H](O)[C@H](N)[C@@H]2O)C[C@@H]2O[C@](O)(C[C@@H](O)C[C@@H](O)[C@H](O)CC[C@@H](O)C[C@@H](O)CC(=O)O[C@H]1C)C[C@H](O)[C@H]2C(=O)O [amphotericine B, Amphotericin B, reference compound]			Inhibition of Leishmania (%) (Table 4, positive control at 1 μM): 55.4%; Inhibition of Leishmania (%) (Table 5, positive control at 1 μM): 55.4%
C=C(C)[C@@H]1CC[C@]2(/C=N/O)CC[C@]3(C)[C@H](CC[C@@H]4[C@@]5(C)CC/C(=N\O)C(C)(C)[C@@H]5CC[C@]43C)[C@@H]12 [betulin 3,28-dioxime]	72.4%		
C=C(C)C1CCC2(C#N)CCC3(C)C(CCC4C5(C)CCC(=NOC(C)=O)C(C)(C)C5CCC43C)C12 (stereo not shown) [betulin 3-acetoxyoxime-28-nitrile]	66.4%		activity against leishmaniasis: considerable activity
C=C(C)[C@@H]1CC[C@]2(COC(=O)C3C(C=C(C)C)C3(C)C)CC[C@]3(C)[C@H](CC[C@@H]4[C@@]5(C)CC[C@H](O)C(C)(C)[C@@H]5CC[C@]43C)[C@@H]12 (stereo partly shown) [betulin 28-chrysanthemate, 28-chrysanthemate of betulin]	13.4%		
C=C(C)[C@@H]1CC[C@]2(/C=N/O)CC[C@]3(C)[C@H](CC[C@@H]4[C@@]5(C)CC[C@H](O)C(C)(C)[C@@H]5CC[C@]43C)[C@@H]12 [betulin 28-oxime]	66.8%		
C=C(C)[C@@H]1CC[C@]2(CO)CC[C@]3(C)[C@H](CC[C@@H]4[C@@]5(C)CC[C@H](O)C(C)(C)[C@@H]5CC[C@]43C)[C@@H]12 [betulin, lup-20(29)-ene-3β,28-diol]			inhibition at 50 µM [1]: 35%
C=C(C)[C@@H]1CC[C@]2(C(=O)O)CC[C@]3(C)[C@H](CC[C@@H]4[C@@]5(C)CC[C@H](O)C(C)(C)[C@@H]5CC[C@]43C)[C@@H]12 [betulinic acid, reference compound]			inhibition at 50 µM [1]: 39.8%
C=C(C)[C@@H]1CC[C@]2(C=O)CC[C@]3(C)[C@H](CC[C@@H]4[C@@]5(C)CC[C@H](O)C(C)(C)[C@@H]5CC[C@]43C)[C@@H]12 [betulinic aldehyde, reference compound]			inhibition at 50 µM [1]: 65%
C=C(C)[C@@H]1CC[C@]2(C(=O)O)CC[C@]3(C)[C@H](CC[C@@H]4[C@@]5(C)CCC(=O)C(C)(C)[C@@H]5CC[C@]43C)[C@@H]12 [betulonic acid]	97.6%		activity against leishmaniasis: considerable activity
C=C(C)[C@@H]1CC[C@]2(CO)CC[C@]3(C)[C@H](CC[C@@H]4[C@@]5(C)CCC(=O)C(C)(C)[C@@H]5CC[C@]43C)[C@@H]12 [betulonic alcohol]	44.0%		

Compound	Inhibition of Leishmania (%) [1]	Inhibition of Leishmania (%) [2]	also measured
C=C(C)[C@@H]1CC[C@]2(C=O)CC[C@]3(C)[C@H](CC[C@@H]4[C@@]5(C)CCC(=O)C(C)(C)[C@@H]5CC[C@]43C)[C@@H]12 [betulonic aldehyde, reference compound]	46.2%		
Dials-Alder adduct of 3β,28-diacetoxylupa-12,18-diene and p-chloro-4-phenylurazole		27.3%	
Diels-Alder adduct of 3β,28-diacetoxylupa-12,18-diene and 1,3-dioxol-5-ylurazole		52.2%	activity against leishmaniasis: considerable activity
Diels-Alder adduct of 3β,28-diacetoxylupa-12,18-diene and 1-naphthylurazole		57.7%	activity against leishmaniasis: considerable activity
Diels-Alder adduct of 3β,28-diacetoxylupa-12,18-diene and 4-benzoylurazole		24.7%	
Diels-Alder adduct of 3β,28-diacetoxylupa-12,18-diene and 4-methylurazole		98.2%	GI50 (Table 5): 8.9 µM; activity against leishmaniasis: considerable activity
Diels-Alder adduct of 3β,28-diacetoxylupa-12,18-diene and 4-phenylurazole		36.2%	
Diels-Alder adduct of 3β,28-diacetoxylupa-12,18-diene and indan-5-yl urazole		22.5%	
Diels-Alder adduct of 3β,28-diacetoxylupa-12,18-diene and m-chloro-4-phenylurazole		29.7%	
Diels-Alder adduct of 3β,28-diacetoxylupa-12,18-diene and m-methoxy-4-phenylurazole		43.5%	
Diels-Alder adduct of 3β,28-diacetoxylupa-12,18-diene and m-nitroxy-4-phenylurazole		29.5%	
Diels-Alder adduct of 3β,28-diacetoxylupa-12,18-diene and p-acetoxy-4-phenylurazole		44.7%	
Diels-Alder adduct of 3β,28-diacetoxylupa-12,18-diene and p-fluoro-4-phenylurazole		47.8%	
Diels-Alder adduct of 3β,28-diacetoxylupa-12,18-diene and urazole		87.6%	GI50 (Table 5): 25.5 µM; activity against leishmaniasis: considerable activity
Diels-Alder adduct of lupa-12,18-diene and 4-methylurazole		50.0%	
Diels-Alder adduct of lupa-12,18-diene and 4-phenylurazole		47.5%	
betulin 28-acetic acid methyl ester [betulin 28-acetic acid methylester]			Inhibition of Leishmania (%) (Table 4, compound concentration, 24 h, then Alamar Blue 24 h, fluorescence, species and stage not given): 95.3%; activity against leishmaniasis: considerable activity
